Results published in patent publication US5849782A, “Methods of inhibiting neurodegenerative diseases” (The General Hospital Corporation, priority 1996, dated 1998).

Tests used:
Male Swiss-Webster mice [1] = assay: MPTP-induced neurotoxicity in mice: striatal dopamine, DOPAC, HVA; assay type: in vivo, mouse; conditions: at 1 week
Method: Methods. Male Swiss-Webster mice (30-35 g:Taconic Farms, Germantown, N.Y., U.S.A.) were treated with either normal saline or MPTP hydrochloride (Research Biochemicals, Natick, Mass., U.S.A.). MPTP was administered in 0.1 ml of water at a dose of 10 mg/kg i.p. at 2-h intervals for six doses or 20 mg/kg i.p. at 2-h intervals for four doses. 7-NI (Cookson Chemical Ltd., Southhampton, U.K.) was dissolved in peanut oil (Sigma, St. Louis, Mo., U.S.A.) at a concentration of 5 mg/ml. Mice received doses of 25 or 50 mg/kg per subcutaneous injection. MPTP-treated animals were treated with peanut oil or 7-NI 12 h before the first, at every MPTP injection, and every 8 h for 48 h after MPTP injections. Eleven to 12 animals were used in each group. Animals were killed at 1 week. The two striata were rapidly dissected and placed in chilled 0.1M perchloric acid. Tissue was subsequently sonicated, and aliquots were taken for protein quantification using a fluorometric assay (Beal et al., 1990) J. Neurochem. 55:1327-1339).
(§1) Dopamine, 3,4-dihydroxyphenlyacetic acid (DOPAC), homovanillic acid (HVA), p-tyrosine, and 3-nitrotyrosine were quantified by HPLC with 16-electrode electrochemical detection (Beal et al. (1990) supra) and are expressed as ng/mg protein (mean±SEM) (FIG. 1). 3-Nitrotyrosine data are expressed as ratios of 3-nitrotyrosine to p-tyrosine to normalize for differing brain concentrations of tyrosine. The statistical significance of differences was determined via one-way ANOVA followed by Fisher PLSD post hoc test to compare group means. All animal use procedures were in strict accordance with the NIH Guide for the Care and Use of Laboratory Animals and were approved by the local Animal Care Committee.

Male Swiss-Webster mice [2] = assay: 3-nitrotyrosine to tyrosine ratio in mouse striatum after MPTP; assay type: in vivo; conditions: MPTP 20 mg/kg x4
Method: as §1
Role of Peroxynitrite in MPTP. To determine whether peroxynitrite plays a role in MPTP neurotoxicity, we therefore measured the ratio of 3-nitrotyrosine to tyrosine in mouse striatum following administration of MPTP.

dopamine transporter = dopamine transporter (Mus musculus, UniProt Q61327); conditions: read-out: concentration giving complete inhibition of [3H]dopamine uptake
Chain of dopamine transporter (Q61327 whole entry): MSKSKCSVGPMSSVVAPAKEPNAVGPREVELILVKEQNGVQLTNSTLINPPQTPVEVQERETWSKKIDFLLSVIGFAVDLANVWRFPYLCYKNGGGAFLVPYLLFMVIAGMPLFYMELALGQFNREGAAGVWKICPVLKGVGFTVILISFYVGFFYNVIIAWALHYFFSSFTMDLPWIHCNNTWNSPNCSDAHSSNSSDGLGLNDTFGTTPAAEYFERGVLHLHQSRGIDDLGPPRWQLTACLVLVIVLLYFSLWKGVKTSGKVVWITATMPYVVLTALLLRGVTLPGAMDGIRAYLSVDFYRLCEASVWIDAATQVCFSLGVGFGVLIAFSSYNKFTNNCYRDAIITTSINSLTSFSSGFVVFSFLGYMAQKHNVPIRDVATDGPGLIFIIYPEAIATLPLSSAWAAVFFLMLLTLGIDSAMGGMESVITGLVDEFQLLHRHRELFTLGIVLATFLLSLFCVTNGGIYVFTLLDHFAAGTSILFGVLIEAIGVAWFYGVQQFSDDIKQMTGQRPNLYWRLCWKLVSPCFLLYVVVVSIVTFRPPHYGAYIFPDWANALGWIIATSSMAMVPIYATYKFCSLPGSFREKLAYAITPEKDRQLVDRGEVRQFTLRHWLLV

[3] = 3-NP-induced neurotoxicity in vitro; Riepe et al. 1994; cited from earlier work
Male Sprague-Dawley rats = assay: Spontaneous striatal electrophysiological activity; conditions: MK-801 4 mg/kg after 7-NI; urethane anesthetized rats
Method: Electrophysiology. Four male Sprague-Dawley rats weighing 300 to 400 g were used for electrophysiological studies. Animals were anesthetized with urethane 1.5 g/kg i.p. and placed in a stereotaxic apparatus with their body temperatures maintained at 37° C. by a feedback heating pad. A 0.5×0.5 cm craniotomy was made and recording electrodes were placed in the anterior striatum using stereotaxic coordinates and aural monitoring. Following electrode placement the craniotomy was covered with 4% agar in saline and 30 min were allowed for stabilization before recordings were made. The spontaneous activity of multiple units were recorded extracellularly in the striatum, 3-4 mm anterior to the bregma and 3-4 mm lateral to the midline at a depth of 2.5-4.0 mm using commercially available tungsten microelectrodes (4 M.OMEGA. at 1 kHz, F. Haer, Inc.). […] Data acquisition and analysis of mean firing rate was performed using Discovery.COPYRGT., Experimenters WorkBench.COPYRGT. and Personal Scientific Workstation.COPYRGT. software (DataWave Technologies, Longmont, Colo.). We investigated the electrophysiological effects of the NMDA antagonist MK-801 and the NOS inhibitor 7-NI. […] Finally, spontaneous activity was recorded after the NMDA channel mediated activity was blocked by injection of MK-801 (4 mg/kg).

[4] = MPTP 10 mg/kg x6 at 2-h intervals

CN1CC=C(c2ccccc2)CC1 [MPTP, 1-methyl-4-phenyl1,2,3,6-tetrahydropyridine]
depletion in striatal DOPAC levels (Male Swiss-Webster mice [1]; [4]): 27% | depletion in striatal HVA levels (Male Swiss-Webster mice [1]; [4]): 35% | depletion in striatal dopamine levels (Male Swiss-Webster mice [1]; [4]): 38% | depletion in striatal dopamine levels (Male Swiss-Webster mice [1]; MPTP 20 mg/kg x4): 64% | increase of 3-nitrotyrosine to tyrosine ratio (Male Swiss-Webster mice [2]): 31%

OC1(c2ccc(Cl)cc2)c2ccccc2C2=NCCN21 (centres unmarked) [mazindol, reference compound]
IC100 (dopamine transporter): 1 µM

C[C@]12N[C@H](Cc3ccccc31)c1ccccc12 [MK-801, reference compound]
effect on ATP depletions [3]: had no effect | decrease in mean firing rate in striatum (Male Sprague-Dawley rats): rapid and profound
